The target in this experiment is LuxG (Photobacterium leiognathi, UniProt P29237). Nature of the experiment: stopped-flow NADH fluorescence, amplitude titration. Type of experiment: binding.
LuxG, sequence (P29237 whole entry): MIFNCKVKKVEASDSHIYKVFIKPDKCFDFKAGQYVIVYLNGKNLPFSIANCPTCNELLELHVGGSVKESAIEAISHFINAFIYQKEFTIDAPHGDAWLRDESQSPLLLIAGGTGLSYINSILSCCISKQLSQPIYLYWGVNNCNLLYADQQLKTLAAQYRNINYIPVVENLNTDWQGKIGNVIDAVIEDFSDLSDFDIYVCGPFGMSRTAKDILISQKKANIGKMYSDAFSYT

Consider `NC(=O)C1=CN([C@@H]2O[C@H](COP(=O)(O)OP(=O)(O)OC[C@H]3O[C@@H](n4cnc5c(N)ncnc54)[C@H](O)[C@@H]3O)[C@@H](O)[C@H]2O)C=CC1` [NADH], for which the Kd worked out at 25 ± 4 µM.

A word on the Kd: it is the free concentration of one partner at which half of the binding sites on the other are occupied at equilibrium, for simple one-to-one binding. A high value points to a looser complex.

The values are drawn from article PMC2980852 (Biochemistry, 2010).
